pEC50, pIC50: −log10 of the molar value. Read-outs that look alike come from different tables or passages of the source.
Tests used:
[1] = test system: HeLa cells; test: HeLa Cytotoxicity Assay (Cell Titer Glo viability); format: cell-based; conditions: for EC50: known PDE3 inhibitors, Mean (n = 3), read-out: Potency (EC50 nM) HeLa; for pEC50: Cell Titer Glo, read-out: EC50 HeLa
Method: HeLa Cytotoxicity Assay Protocol: Day 0: HeLa cells (ATCC, HeLa CCL-2) are grown to 95% confluence in DMEM, 10% FBS/Pen/Strep/L-Glutamine. Day 1: Plate cells (1000 per well) in 40 μl culturing media using Corning 384-well plates (3570), incubate in standard TC conditions (5% CO2, 95% humidity, 37 degrees C.) for 24 hours. Day 2: Dilute each concentration of a half-log serial dilution of compound (1 mM-100 nM) 1:200 in culturing media and add 10 μl (50 μl total volume) of that dilution to designated wells (8 replicates per concentration). The final dilution will be 1000×(1 μM-100 pM). Day 4: Remove plate from incubator to cool for 20 minutes to room temperature. Add 40 μl of a 25% Promega Cell Titer Glo solution (diluted 1:3 with room temperature PBS) with Thermo combi or multichannel and incubate for 10 minutes. Read on Perkin-Elmer EnVision with US LUM settings for 0.1 second per well.
(§1) Compounds as shown were tested against various cells lines in vitro according to the methods described herein. Cells are plated in 384-well format in a total volume of 40 μl. Indicated compound concentrations were added 24 hrs after plating the cells. After 48 hrs cell viability was determined using Cell Titer Glo® Luminescent Cell Viability Assay.
as §1, with “Known PDE3 inhibitors” for “Compounds”, “shown below” for “shown”

[2] = test system: A549 cells; test: A549 Cytotoxicity Assay (Cell Titer Glo viability); format: cell-based; conditions: for EC50: known PDE3 inhibitors, Mean (n = 3), read-out: Potency (EC50 nM) A549; for pEC50: 48 hrs, Cell Titer Glo, read-out: EC50 A549
Method: (§2) A549 Cytotoxicity Assay Protocol. Day 0: A549 cells (ATCC, A549 CCL-185) are grown to 95% confluence in RPMI, 10% FBS/Pen/Strep/L-Glutamine. Day 1: Plate cells (1000 per well) in 40 μl culturing media using Corning 384-well plates (3570), incubate in standard TC conditions (5% CO2, 95% humidity, 37° C.) for 24 h. Day 2: Dilute each concentration of a half-log serial dilution of compound (1 mM-100 nM) 1:200 in culturing media and add […] (50 μl total volume) of that dilution to designated wells (8 replicates per concentration). The final dilution will be 1000×([…]). Day 4: Remove plate from incubator to cool for 20 minutes to room temperature. Add 40 μl of a 25% Promega Cell Titer Glo solution (diluted 1:3 with room temperature PBS) with Thermo combi or multichannel and incubate for 10 min. Read on Perkin-Elmer EnVision with US LUM settings for 0.1 second per well.
A549 Assay Protocol. Day 0: A549 cells (ATCC) are grown in a Triple flask (NUNC) to ˜95% confluence (TrypLE Phenol Red free) and resuspended for dispensing at 25,000 cells/mL of DMEM, 10% FBS/Pen/Strep/L-Glutamine (using the TAP Compact SelecT automated cell culture system). Day 1: Plate cells at 1000 per well in 40 uL media (DMEM/10% FBS/Pen/Strep/L-Glutamine) using Corning 8867BC 384 well plates; incubate in standard TC conditions (5% CO2; 95% humidity, 37° C.) for 24 hours (Compact SelecT). Day 2: Add 100 nL compound per well at dose into 40 uL assay volume using a pin tool (CyBi Well). Pin 100 nL cytotoxic compounds, mitoxantrone (CID 4212) to positive control wells to a final concentration of 10 μM (100 nL 4 mM DMSO stock). Incubate for […] at 37° C. in Liconic incubator, 95% humidity 5% CO2. Day 4: Remove plate from incubator, cool for 15 minutes to room temperature; add 20 μL 50% Promega CellTiterGlo (diluted 1:1 with PBS, pH 7.4) with Thermo Combi. Incubate at room temperature for 5 minutes. Read plates on Perkin-Elmer EnVision with standard luminescence settings for 0.1 sec per well.
as §1
as §1, with “Known PDE3 inhibitors” for “Compounds”, “shown below” for “shown”

[3] = test system: PDE3; conditions: reference value; read-out: PDE3 activity (ref); cited from earlier work
[4] = test system: COLO741 cells; test: COLO741 Assay (Cell Titer Glo viability); format: cell-based; conditions: 48 hrs, Cell Titer Glo, read-out: EC50 COLO741
Method: as §2, with “C0L0741” for “A549 Cytotoxicity”, “C0L0741” for “A549”, “(ECACC, C0L0741 93052621)” for “(ATCC, A549 CCL-185)”, “(1500” for “(1000”, “minutes.” for “min.”
as §1

[5] = test system: HEL; test: HEL cell line viability (Cell Titer Glo); format: cell-based
Method: as §1

[6] = test system: H2122 cells; test: H2122 Assay (Cell Titer Glo viability); format: cell-based; conditions: 48 hrs, Cell Titer Glo, read-out: EC50 H2122
Method: Selective toxicity in cell line panel. H2122 Assay Protocol Day 0: H2122 cells (ATCC, H2122 CCL-5985) are grown to 95% confluence in RPMI, 10% FBS/Pen/Strep/L-Glutamine. Day 1: Plate cells (750 per well) in 40 μl culturing media using Corning 384-well plates (3570), incubate in standard TC conditions (5% CO2, 95% humidity, 37 degrees C.) for 24 h. Day 2: Dilute each concentration of a half-log serial dilution of compound (1 mM-100 nM) 1:200 in culturing media and add 10 μl (50 μl total volume) of that dilution to designated wells (8 replicates per concentration). The final dilution will be 1000×([…]). Day 4: Remove plate from incubator to cool for 20 minutes to room temperature. Add 40 μl of a 25% Promega Cell Titer Glo solution (diluted 1:3 with room temperature PBS) with Thermo combi or multichannel and incubate for 10 minutes. Read on Perkin-Elmer EnVision with US LUM settings for 0.1 second per well.
as §1

[7] = test system: HeLa cells; test: PARP cleavage assay (immunoblot); format: cell-based
Method: The mechanism of cell death was determined after contacting the cells with the compound in Example 1. […] Cells were treated for 24 h with the indicated concentrations of each agent, lysed, and immunoblotted with anti-PARP or anti-actin.

For `Cc1[nH]c(=O)c(C#N)cc1-c1ccncc1` [Millrinone, reference compound], the EC50 ([1]; Homo sapiens, HeLa) is given as > 10000 nM, the EC50 ([2]; Homo sapiens, A549) is given as > 10000 nM and the pIC50 [3] is given as 7.25.
In the case of `CC(=O)Nc1ccc(C2=NNC(=O)C[C@H]2C)cc1` [OR-1896, reference compound], the EC50 ([1]; Homo sapiens, HeLa) is listed as > 10000 nM, the EC50 [2] is listed as > 10000 nM and the pIC50 [3] is listed as 7.03.
In the case of `CN/C(=N\c1ccc(C2=NNC(=O)CC2C)cc1)NC#N` (stereo not shown) [Siguazodan, reference compound], the EC50 ([1]; Homo sapiens, HeLa) is given as > 10000 nM, the EC50 ([2]; Homo sapiens, A549) is given as > 10000 nM and the pIC50 [3] is given as 6.93.
In the case of `COc1cc2c(cc1OC)-c1c/c(=N\c3c(C)cc(C)cc3C)n(C)c(=O)n1CC2` [Trequinsin, reference compound], the EC50 ([1]; Homo sapiens, HeLa) is listed as > 10000 nM, the EC50 ([2]; Homo sapiens, A549) is listed as > 10000 nM and the pIC50 [3] is listed as 9.60.
In the case of `COc1cc(-c2ccc(=O)[nH]n2)ccc1OC(F)F` [Zardaverine, reference compound], the EC50 ([1]; Homo sapiens, HeLa) is listed as 56 nM, the EC50 ([2]; Homo sapiens, A549) is listed as > 10000 nM and the pIC50 [3] is listed as 5.60.
In the case of `C[C@@H]1CC(=O)NN=C1c1ccc(N2CCOCC2)cc1` [drawing 138], the pEC50 [4] was 7.72 to 7.84, the pEC50 ([1]; Homo sapiens, HeLa, 48 h) was 7.92 to 7.99 and the pEC50 ([5]; 48 hrs) was 7.23 to 7.59. For the same compound, the pEC50 [2] was < 5.00 and the pEC50 ([6]; Homo sapiens, NCI-H2122, 48 h) was 7.93.
For `CCN(CC)c1ccc(C2=NNC(=O)C[C@H]2C)cc1[N+](=O)[O-]` [drawing 141], the pEC50 ([4]; Homo sapiens, COLO-741, 48 h) was 8.40, the pEC50 ([1]; Homo sapiens, HeLa, 48 h) was 8.58 and the pEC50 ([5]; Homo sapiens, HEL, 48 h) was 7.87. For the same compound, the pEC50 ([2]; Homo sapiens, A549) was < 5.00 and the pEC50 [6] was 8.44.
`CCNc1ccc(C2=NNC(=O)C[C@H]2C)cc1[N+](=O)[O-]` [drawing 142] showed a pEC50 ([4]; Homo sapiens, COLO-741, 48 h) of 9.12, a pEC50 ([1]; Homo sapiens, HeLa, 48 h) of 9.34 and a pEC50 ([5]; Homo sapiens, HEL, 48 h) of 8.40. The pEC50 ([2]; Homo sapiens, A549) was < 5.00 and the pEC50 ([6]; Homo sapiens, NCI-H2122, 48 h) was 9.10.
`CCN(CC)c1ccc(C2=NNC(=O)C[C@H]2C)cc1[N+](=O)[O-]` [drawing 145] showed a pEC50 [4] of 8.36 to 8.44, a pEC50 ([1]; 48 hrs) of 8.39 and a pEC50 ([5]; 48 hrs) of 7.79 to 7.95. The pEC50 [2] was < 5.00 and the pEC50 [6] was 8.13.
With `C[C@@H]1CC(=O)NN=C1c1ccc(N2CCOCC2)cc1` [drawing 151] the pEC50 ([4]; Homo sapiens, COLO-741, 48 h) was 7.78, the pEC50 ([5]; Homo sapiens, HEL, 48 h) was 7.41 and the pEC50 ([2]; Homo sapiens, A549) was < 5.00.
In the case of `OO` [hydrogen peroxide], the “mechanism of cell death (PARP cleavage)” value ([7]; Hela cells treated for 24 h, anti-PARP immunoblot, FIG. 3) was “caused necrosis but not apoptosis”.
For `CN[C@@H]1C[C@H]2O[C@@](C)([C@@H]1OC)n1c3ccccc3c3c4c(c5c6ccccc6n2c5c31)C(=O)NC4` [staurosporine], the cell death ([7]; Hela cells, 10 μM, 24 h) was “almost complete cell death”.

Reference: patent publication US20180244629A1, “Compounds And Compositions For The Treatment Of Cancer” (The Broad Institute, Inc., priority 2013, published 2018)
